The assay concerns CEM cells HIV-1 protection, formazan growth assay. Briefly: NCI AIDS Antiviral Assay. The conditions noted are these: for IC50: measured here: growth of uninfected CEM cells. A digest of the protocol:
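Protection of CEM cells against HIV-1 measured as cell growth via soluble formazan read-out, with five concentrations tested on both infected and uninfected cells; failure to protect may reflect toxicity.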

Broadly, the EC50 is the midpoint of the concentration-response curve. As a reminder, the IC50 is the concentration that inhibits the measured activity by half. Read a low IC50 as inhibition by little substance.

Activity calls are given as the source filed them.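 Rule for the calls: active = compounds giving half or more protection of infected cells from virus-caused growth loss, again on retest; inactive = the rest.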 Where a SMILES comes first, the peptide text is derived from it. [ ]: non-standard residue; d: D form. The star is where a group is joined. Tyr(3-Br) = N[C@@H](Cc1ccc(O)c(Br)c1)C(=O)O; Boc = CC(C)(C)OC(=O)*

Take `C/C(=N\N=C(\[Se])N1CCN(c2ccccn2)CC1)c1ccccn1`: the EC50 is more than 36.3 µM and the IC50 stood at 0.0155 µM.

Consider `CN(C)c1ccc(-c2nnc3c(c(=O)n(C)c(=O)n3C)[n+]2[O-])cc1`, for which the EC50 was more than 200 µM and the concentration for half-maximal inhibition (IC50) turned out to be 19.1 µM.

As for `COC(=O)C1=C(C)C(=O)[C@]23C(CCCC[C@H]12)C(=O)[C@H](C(=O)OC)C3C` (some centres not stated), the EC50 was more than 200 µM and the IC50 is more than 200 µM.

As for `CC1(C)C[N+](C)(C)C2(CCCC2)O1`, the EC50 is more than 200 µM and the IC50 was more than 200 µM.

On to `O=C(Nc1ccc(C2=NCCN2)cc1)c1ccc(C(=O)Nc2ccc(C3=NCCN3)cc2)c(Br)c1`, for which the EC50 was 8.32 µM and the IC50 stood at 20.9 µM.

With `O=C(O)C1SCCCS1`, the EC50 is more than 1510 µM and the IC50 was more than 1510 µM.

For the molecule `COc1cccc(N2C(=O)[C@H]3[C@H]4CC(C(C)(C)C)CC[C@H]4c4c([nH]c5ccccc45)[C@H]3C2=O)c1` (some centres not stated), the EC50 is 18.2 µM and the IC50 amounted to 26.9 µM.

Regarding `Cc1ccc(Nc2cc(=O)[nH]c(=O)[nH]2)cc1CS`, the EC50 is more than 200 µM and the IC50 turned out to be 93.3 µM.

As for `CC12COC3(C)CCC(C)(OC1)N23` (configuration not stated), the EC50 was more than 490 µM and the IC50 is more than 490 µM.

Take `CCc1c2c(c(C)n1C)C(c1ccccc1)=NCC(=O)N2`: the EC50 was more than 468 µM and the IC50 was 295 µM.

As for `O=C1CC(=O)Nc2ccccc2N1`, the EC50 is more than 200 µM and the IC50 is more than 200 µM.

With `OCC1OC(n2cnc3c2NC=NCC3O)C(Cl)C1O` (configuration not stated), the EC50 is more than 295 µM and the IC50 was more than 295 µM.

As to `Cc1ccc(C)c(NC(=O)C(=O)C2C(=O)N(c3ccccc3)N=C2N)c1` (configuration not stated), the EC50 was more than 708 µM and the IC50 worked out at 631 µM.

Take `COc1c(OC2OC(CO)C(O)C(O)C2O)cc2c(c1OC)-c1ccc(SC)c(=O)cc1[C@@H](NC(C)=O)CC2` (some centres not stated): the outcome was inactive.

For the molecule `C/C=C1\CN2CCC34c5ccccc5N(C)C35OCC4(C(=O)OC)C1CC25` (configuration not stated), the EC50 was more than 83.2 µM and the IC50 turned out to be 25.7 µM.

Regarding `CN(CCO)CCCC1COc2ccccc2O1` (configuration not stated), the EC50 was more than 200 µM and the IC50 was more than 200 µM.

`CN(C(=O)CCC(=O)O)c1ccccc1C(=O)O`: the EC50 was more than 200 µM and the IC50 was more than 200 µM.

Take `Cc1ccc(C)n1N1CC(C)N(N=O)CC1C` (configuration not stated): the EC50 was more than 200 µM and the IC50 is more than 200 µM.

Turning to `COP1(=S)OCC2OC(n3cc(C)c(=O)[nH]c3=O)CC2O1` (configuration not stated), the EC50 was more than 100 µM and the IC50 was more than 100 µM.

Consider `CCOC(=O)C1C(c2ccc3c(c2)OCO3)c2c([nH][nH]c2=O)CC1(C)O` (configuration not stated), for which the EC50 is more than 200 µM and the IC50 was more than 200 µM.

In the case of `Cc1cc(C)n(CCNCCn2nc(C)cc2C)n1`, the outcome was inactive.

With `Cc1cc(Cl)ccc1N1C(=O)C(=O)C(c2nc3ccccc3o2)C(=O)C1=O`, the result was inactive.

`COc1cccc(NC(=O)C(C#N)=C(SC)SC)c1`: the EC50 was more than 200 µM and the IC50 was 7.94 µM.

Take `CCOC(=O)NC(Nc1ccc(S(=O)(=O)Nc2nc(C)cc(C)n2)cc1)(C(=O)OCC)C(F)(F)F` (configuration not stated): the EC50 was more than 200 µM and the IC50 is more than 200 µM.

Consider `CC1OC(OCC2OC(Oc3ccc4c(=O)c(-c5ccc6c(c5)OCO6)coc4c3)C(O)C(O)C2O)C(O)C(O)C1O` (configuration not stated), for which the EC50 was 129 µM and the IC50 amounted to 182 µM.

On to `CCN(CC)C(=O)C1(C)NS(=O)(=O)c2ccccc2C1=O` (configuration not stated), for which the EC50 was more than 200 µM and the IC50 was more than 200 µM.

In the case of `NCCCCN(CCCN)C(=O)c1ccccc1`, the outcome was inactive.

In the case of `O=[N+]([O-])C1(C2([N+](=O)[O-])CCCC2)CCCC1`, the EC50 is 44.7 µM and the IC50 was 110 µM.

Molecule `CCC(NC(=O)c1ccccc1SC(=O)CCCC[n+]1ccccc1)C(N)=O` (configuration not stated) had an EC50 of more than 3.8 µM.

For `CC(=O)n1[nH]c(=O)n(-c2ccc(Cl)cc2)c1=O`, the EC50 is more than 200 µM and the IC50 is more than 200 µM.

Consider `COC(=O)/C=C1\C(=O)N(C(C)=O)c2ccccc21`, for which the EC50 was more than 200 µM and the IC50 was 3.31 µM.

As for `O=C1N=C2C=CC=CN2CC1O` (configuration not stated), the EC50 is more than 200 µM and the IC50 was more than 200 µM.

On to `CC(C)C(NCc1c2ccccc2nc2ccccc12)C(=O)O` (configuration not stated), for which the outcome was inactive.

Turning to `Cc1cc([C@H](C#N)c2nc3ccccc3s2)nc(Cl)n1`, the EC50 is more than 15.1 µM and the IC50 is 1.05 µM.

Take `CCCCS(=O)CCC(N)P(=O)(O)O` (configuration not stated): the EC50 was more than 200 µM and the IC50 was more than 200 µM.

`Cc1cc2c(c(C=Nc3ccc([N+](=O)[O-])cc3)c1)OC1(C=C2)Oc2ccccc2C(=O)N1C` (configuration not stated): the EC50 was more than 200 µM and the IC50 came out at 22.9 µM.

`Cc1sc2ncnc(N)c2c1C`: the EC50 was more than 275 µM and the IC50 is more than 275 µM.

As to `COC(=O)[C@H](Cc1ccc(O)c(Br)c1)NC(=O)[C@H](Cc1ccc(O)cc1)NC(=O)OC(C)(C)C` (Boc-Tyr-[Tyr(3-Br)]-OMe), the EC50 is more than 200 µM and the IC50 was determined as 34.7 µM.

On to `COC(=O)C1[C@@H](C(=O)OC)C12C=Cc1ccccc1C=C2` (some centres not stated), for which the EC50 was more than 200 µM and the IC50 is more than 200 µM.

Consider `COc1ccc(-c2c(C3=NCCN3)nnn2-c2ccc(Cl)cc2)cc1`, for which the EC50 is more than 126 µM and the IC50 came out at 91.2 µM.

For the molecule `Cc1cc(C)nc(NS(=O)(=O)c2ccc(Nc3c4ccc(Cl)cc4nc4ncccc34)cc2)n1`, the outcome was inactive.

`CC1(C)Oc2ccccc2[N+]([O-])=C1c1ccccc1`: the EC50 was more than 141 µM and the IC50 was more than 141 µM.

As for `CN1CCN(CC(=O)Nc2cccc3ccccc23)CC1`, the EC50 was more than 200 µM and the IC50 was more than 200 µM.

Regarding `N#CC(C#N)=Cc1ccc(Oc2ccccc2)cc1`, the EC50 was more than 21.4 µM and the IC50 came out at 16.6 µM.

As for `Nn1c(=O)[nH]c2ncn(Cc3ccccc3)c2c1=O`, the EC50 is more than 200 µM and the IC50 is more than 200 µM.

As for `CCOC(=O)c1c(N)sc2c1C(C(=O)OCC)CC2` (configuration not stated), the EC50 was more than 200 µM and the IC50 amounted to 174 µM.

In the case of `Nc1ncc(CN2CCOCC2)c(-c2ccccc2O)n1`, the EC50 was more than 200 µM and the IC50 is more than 200 µM.

As to `Cn1c(O)c(N=NC(=S)NC(=O)C23CC4CC(CC(C4)C2)C3)c2ccccc21`, the result was inactive.

On to `OC1C2CN3CCN(C2)CC1(c1ccccc1)C3` (configuration not stated), for which the EC50 was more than 200 µM and the IC50 was more than 200 µM.

On to `CC(C)=CCCC(C)C1=C(O)C(=O)C(C)=CC1=O` (configuration not stated), for which the EC50 is more than 2 µM and the IC50 worked out at 0.589 µM.

Consider `CCN1C(c2ccccc2)=CC(c2ccccc2)(C(Cl)(Cl)Cl)C=C1c1ccccc1`, for which the EC50 was more than 200 µM and the IC50 was found to be 1.78 µM.

Consider `O=S(CC(O)c1ccccc1)c1ccccc1` (configuration not stated), for which the EC50 was more than 200 µM and the IC50 was determined as 23.4 µM.

`COC(=O)CC1C(C(C)(OC)OC)C(=O)N1[Si](C)(C)C(C)(C)C` (configuration not stated): the EC50 is more than 363 µM and the IC50 is more than 363 µM.

Take `Oc1cc(O)c2c(c1)OC(c1ccc(O)c(O)c1)C(OC1(c3cc(O)c(O)c(O)c3)Oc3cc(O)cc(O)c3C(O)C1O)C2` (configuration not stated): the EC50 is more than 200 µM and the IC50 was found to be 11.5 µM.

Consider `COc1cc(C2C3=C(COC3=O)OC(C)(C)Oc3cc4c(cc32)OCO4)cc(OC)c1O` (configuration not stated), for which the EC50 is more than 2 µM and the IC50 is 0.575 µM.

`S=c1nc2[nH]c3ccccc3c2n[nH]1`: the EC50 is more than 200 µM and the IC50 is more than 200 µM.

For `CN(C)CCN1C(=O)N(CCN(C)C)c2c3cc(O)ccc3nc3c([N+](=O)[O-])ccc1c23`, the EC50 was more than 200 µM and the IC50 was 2.34 µM.

Consider `COc1ccccc1/C=C1\SC(=S)NC1=O`, for which the EC50 was more than 200 µM and the IC50 was 107 µM.

With `CCOc1ccc2nc3cc(N=Nc4ccc5c(N)c6cc(OCC)ccc6nc5c4)ccc3c(N)c2c1`, the EC50 is more than 100 µM and the IC50 was 20.4 µM.

With `O=c1[nH]c(=O)n(COCc2ccccc2)cc1Nc1ccc(Br)cc1`, the EC50 was more than 200 µM and the IC50 is more than 200 µM.

For `O=C(O)c1c2c(cc3c1CC1(Cc4cc5c(cc4C1=O)CCC5)C3)CCC2` (configuration not stated), the EC50 is more than 200 µM and the IC50 is 72.4 µM.

Turning to `CCCc1cc(=O)oc2c3c(c4c(c12)OC(C)(C)C=C4)O[C@H](C)[C@@H](C)[C@@H]3O`, the EC50 is 4.68 µM and the IC50 was determined as 16.2 µM.

In the case of `CCc1n[nH]c(=O)n1/N=C/c1ccccc1Cl`, the EC50 is more than 200 µM and the IC50 is more than 200 µM.

For `O=C(NCCCN1CCCCCC1)C(c1ccccc1)C1CCCCC1` (configuration not stated), the EC50 is more than 200 µM and the IC50 turned out to be 36.3 µM.

As to `O=C1c2ccccc2C2(c3ccc(Cl)cc3)N[C@@H]3CCCC[C@@H]3N12` (some centres not stated), the EC50 is more than 200 µM and the IC50 was more than 200 µM.

Consider `CCOC(=O)c1nc2ccccc2nc1Nc1cc(OC)c(OC)c(OC)c1`, for which the EC50 was more than 200 µM and the IC50 is more than 200 µM.

For `CC1(C)OC2C(CO)OC(/N=C(\NC#N)Oc3ccccc3)C2O1` (configuration not stated), the EC50 was more than 200 µM and the IC50 was more than 200 µM.

Take `O=c1[nH]nc(Cc2ccc(Cl)cc2)n1O`: the EC50 was more than 200 µM and the IC50 is more than 200 µM.

As to `CCC(C)(CC(=O)O)CC(=O)OC[C@]12CC[C@@H](C(C)C)[C@@H]1[C@H]1CC[C@@H]3[C@@]4(C)CC[C@H](OC(=O)CC(C)(CC)CC(=O)O)C(C)(C)[C@@H]4CC[C@@]3(C)[C@]1(C)CC2` (some centres not stated), the EC50 was more than 200 µM and the IC50 turned out to be 7.08 µM.

`CCN(CC)CCN=Cc1c(O)c(O)c(C(C)C)c2cc(C)c(-c3c(C)cc4c(C(C)C)c(O)c(O)c(C=NCCN(CC)CC)c4c3O)c(O)c12`: the EC50 is more than 200 µM and the IC50 was determined as 1.02 µM.

For `N#CNC(=NCC1CCCO1)Nc1cccnc1` (configuration not stated), the EC50 was more than 1020 µM and the half-maximal inhibitory concentration (IC50) worked out at 933 µM.

For `O=C(c1ccccc1)c1cccc(C(=O)c2ccccc2)c1`, the EC50 is more than 25.1 µM and the IC50 was more than 25.1 µM.

On to `CC(=O)c1sc(Nc2nnc(-c3ccc(-c4nnc(Nc5nc(C)c(C(C)=O)s5)o4)cc3)o2)nc1C`, for which the outcome was inactive.

(Values after PubChem BioAssay AID179 (DTP/NCI, 2004).)
